Results taken from publication PMC8749467, “A new ALK inhibitor overcomes resistance to first‐ and second‐generation inhibitors in NSCLC” (EMBO Molecular Medicine, 2021).
Like-named read-outs stand apart in the source and are kept apart here.

What was measured:
[1] = tested on: parental (wild-type) Ba/F3 cells; test: Cell survival assay (MTS); type: cell-based, murine; details: Mus musculus, BaF3, 48 h
Experimental: (§1) The murine Pro‐B cell line Ba/F3 cells were provided by Jianming Zhang from Shanghai Jiaotong University. All cells were authenticated by short tandem repeat testing and tested negative for mycoplasma contamination using Luminescent Mycoplasma Detection Kit (Beyotime, Shanghai, China). […] All of these cell lines were maintained at 37°C and 5% CO2.
(§2) Cell viability was determined by MTS assay (Promega).

kinase panels = details: cited from earlier work
[2] = Pharmacokinetics in ICR mice; type: in vivo; details: for concentration at […] / concentration at 0.25 h / concentration at 0.5 h / concentration at 1 h / concentration at 2 h / concentration at 4 h / concentration at 8 h / concentration at 24 h: ICR, blood, read-out: Blood drug concentration; for concentration at […]: 0.083 h; for MRT inf: read-out: MRT(0-∞); for Vd: read-out: Vz;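 on all read-outs here: drug levels in collected samples measured by LC-MS/MS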
Experimental: Then the samples were quantified by LC-MS/MS, and data analysis was conducted using WinNonlin V6.3. IV = intravenous injection, PO = oral delivery, Tmax = time of maximum plasma concentration, Cmax = maximum plasma concentration, AUC = area under the curve (measure of exposure), T1/2 = half life, CL = plasma clearance, Vz = volume of distribution, F = oral bioavailability.

EML4-ALK Ba/F3 cells = test: Cell survival assay (MTS); details: EML4-ALK Ba/F3, 48 h
Experimental: as §1, §2

[3] = reported data ref Huber et al, 2014
[4] = mouse, plasma, IV, 5 mg/kg, ICR mice
[5] = mouse, plasma, IV, 30 mg/kg, ICR mice
[6] = mouse, plasma, IV, 60 mg/kg, ICR mice
[7] = mouse, plasma, PO, 10 mg/kg, ICR mice

For `C[C@@H](Oc1cc(-c2cnn(C3CCNCC3)c2)cnc1N)c1c(Cl)ccc(F)c1Cl` [Crizotinib, crizotinib], the IC50 [1] is listed as 1120 nM, the “S(35)” value (kinase panels; [3]) is listed as 0.21 and the “number of kinases with ctrl ≤35%” value (kinase panels; [3]) is listed as 94.

Work on `COc1cc2c(cc1Nc1nc(Nc3ccccc3S(=O)(=O)C(C)C)c3[nH]ccc3n1)N(C(=O)CN(C)C)CC2` [XMU-MP-5] yielded a concentration at […] ([2]; mouse, IV, 5 mg/kg, mice) of 4300 ng/mL, a concentration at 0.25 h ([2]; mouse, IV, 5 mg/kg, mice) of 2430 ng/mL and a concentration at 0.5 h ([2]; mouse, IV, 5 mg/kg, mice) of 1530 ng/mL. It also gave a concentration at 1 h ([2]; mouse, IV, 5 mg/kg, mice) of 613 ng/mL, a concentration at 2 h ([2]; mouse, IV, 5 mg/kg, mice) of 308 ng/mL and a concentration at 4 h ([2]; mouse, IV, 5 mg/kg, mice) of 72.8 ng/mL. It also gave a concentration at 8 h ([2]; mouse, IV, 5 mg/kg, mice) of 28.7 ng/mL, a concentration at 24 h ([2]; mouse, IV, 5 mg/kg, mice) of 2.09 ng/mL and a concentration at […] ([2]; mouse, IV, 30 mg/kg, mice) of 8260 ng/mL. It also gave a concentration at 0.25 h ([2]; mouse, IV, 30 mg/kg, mice) of 5430 ng/mL, a concentration at 0.5 h ([2]; mouse, IV, 30 mg/kg, mice) of 3870 ng/mL and a concentration at 1 h ([2]; mouse, IV, 30 mg/kg, mice) of 2990 ng/mL. The concentration at 2 h ([2]; mouse, IV, 30 mg/kg, mice) was 2060 ng/mL, the concentration at 4 h ([2]; mouse, IV, 30 mg/kg, mice) was 688 ng/mL and the concentration at 8 h ([2]; mouse, IV, 30 mg/kg, mice) was 171 ng/mL. The concentration at 24 h ([2]; mouse, IV, 30 mg/kg, mice) was 17.9 ng/mL, the concentration at […] ([2]; mouse, IV, 60 mg/kg, mice) was 12400 ng/mL and the concentration at 0.25 h ([2]; mouse, IV, 60 mg/kg, mice) was 7190 ng/mL. It also gave a concentration at 0.5 h ([2]; mouse, IV, 60 mg/kg, mice) of 6430 ng/mL, a concentration at 1 h ([2]; mouse, IV, 60 mg/kg, mice) of 5430 ng/mL and a concentration at 2 h ([2]; mouse, IV, 60 mg/kg, mice) of 2910 ng/mL. The concentration at 4 h ([2]; mouse, IV, 60 mg/kg, mice) was 2580 ng/mL, the concentration at 8 h ([2]; mouse, IV, 60 mg/kg, mice) was 555 ng/mL and the concentration at 24 h ([2]; mouse, IV, 60 mg/kg, mice) was 29.6 ng/mL. The “dose dependence of blood drug concentrations” value ([2]; IV, 5, 30 and 60 mg/kg, mice) was “linear increase”, the AUC(0-inf) [2, 4] was 3310 ng·h/mL and the AUC(0-t) [2, 4] was 3300 ng·h/mL. For the same molecule, the C0 [2, 4] was 5720 ng/mL, the Cmax [2, 4] was 4300 ng/mL and the Tmax [2, 4] was 0.08 h. It also gave a clearance [2, 4] of 25.2 mL/min/kg, a half-life [2, 4] of 3.99 h and an MRT inf [2, 4] of 1.74 h. For the same molecule, the Vd [2, 4] was 8.7 L/kg, the AUC(0-inf) [2, 5] was 13200 ng·h/mL and the AUC(0-t) [2, 5] was 13100 ng·h/mL. For the same molecule, the C0 [2, 5] was 10200 ng/mL, the clearance [2, 5] was 37.8 mL/min/kg and the half-life [2, 5] was 4.93 h. It also gave an MRT inf [2, 5] of 2.95 h, a Vd [2, 5] of 6.7 L/kg and an AUC(0-inf) [2, 6] of 26400 ng·h/mL. It also gave an AUC(0-t) [2, 6] of 26200 ng·h/mL, a C0 [2, 6] of 16300 ng/mL and a clearance [2, 6] of 37.8 mL/min/kg. For the same molecule, the half-life [2, 6] was 4.01 h, the MRT inf [2, 6] was 3.39 h and the Vd [2, 6] was 7.71 L/kg. The AUC(0-inf) [2, 7] was 1270 ng·h/mL, the AUC(0-t) [2, 7] was 1210 ng·h/mL and the Cmax [2, 7] was 474 ng/mL. The Tmax [2, 7] was 0.5 h, the half-life [2, 7] was 1.53 h and the bioavailability ([2]; mouse, plasma, PO, 10 mg/kg, ICR mice, read-out: F (oral bioavailability)) was 18.3%. It also gave an MRT inf [2, 7] of 3.08 h.

In the case of `CCc1cc2c(cc1N1CCC(N3CCOCC3)CC1)C(C)(C)c1[nH]c3cc(C#N)ccc3c1C2=O` [Alectinib, alectinib], the “S(10)” value (kinase panels; reported data ref Sakamoto et al, 2011) is listed as 0.07.

For `Cc1cc(Nc2ncc(Cl)c(Nc3ccccc3S(=O)(=O)C(C)C)n2)c(OC(C)C)cc1C1CCNCC1` [Ceritinib, ceritinib], the “S(10)” value (kinase panels; reported data ref Jang et al, 2017) is listed as 0.19 and the IC50 (EML4-ALK Ba/F3 cells; Mus musculus, BaF3, 48 h) is listed as 1.2 nM.

For `COc1cc(N2CCC(N3CCN(C)CC3)CC2)ccc1Nc1ncc(Cl)c(Nc2ccccc2P(C)(C)=O)n1` [Brigatinib, brigatinib], the “S(10)” value (kinase panels; reported data ref Zhang et al, 2016) is listed as 0.34 and the IC50 (EML4-ALK Ba/F3 cells; Mus musculus, BaF3, 48 h) is listed as 17.3 nM.

With `C[C@H]1Oc2cc(cnc2N)-c2c(nn(C)c2C#N)CN(C)C(=O)c2ccc(F)cc21` [Lorlatinib, lorlatinib] the IC50 (EML4-ALK Ba/F3 cells) was 1.5 nM.
